Experimental data taken from US20250026781A1, “Prodrugs of Neurosteroid Analogs and Uses Thereof” (Emory University, priority 2021, published 2025).
Counter-ions that a name gives are not always drawn.

Assay: Plasma stability assay in human plasma (LC-MS/MS)
Assay type: in vitro ADME
Settings: 37° C., 3 μM test compound, time points 0-240 min, read-out: Plasma t1/2 (converted)
Description: Procaine and procainamide were purchased from Sigma Aldrich. HPLC-grade acetonitrile, water, methanol, and formic acid were purchased from Fisher Scientific. Human plasma (Cat. No. […]2N) was obtained from BIOIVT, and PBS (1× Dulbecco's, pH 7.4) from Thermo Fisher Scientific.
Test compounds were dissolved in DMSO to make a stock solution of 10 mM and then diluted to 500 μM in buffer or 70% methanol. Human plasma was thawed at ambient temperature and aliquoted (994.0 μL) to a 1.5 mL Eppendorf tube in duplicates (vials A and B) for each compound. The plasma was incubated at 37° C. for 10 min in an incubator shaker at 150 RPM; the reaction was initiated by addition of the test compound (6.0 μL), followed by vortex mixing. The total reaction volume was 1000 μL, the final organic solvent concentrations were […] (when 70% methanol was used for dilution) and 0.03% DMSO, and the final concentration of the test compound was 3 μM. The spiked plasma samples were incubated at 37° C. for 4 h. The reactions were terminated at time point 0, 15, 30, 60, 120, 180, and 240 min by taking a 100 μL aliquot from the test incubation mixture and immediately quenching it by adding it into ice-cold acetonitrile or methanol (150 μL) containing 2 μM internal standard (ISTD), followed by vortex mixing. The ISTD was d5-7-ethoxy coumarin. The samples were then centrifuged at 15000 RPM for 25 min at 4° C., and the supernatant was transferred to an LC-MS vial for analysis by LC-MS/MS. Each time point was tested in duplicates followed by in-between blank washes to avoid carryover and to equilibrate the column.
Procaine (poor plasma stability) and procainamide (good plasma stability) were used as controls at the same concentration as that of the test compound. These controls were run in parallel to test the assay's competency. Matrix blank was prepared by adding acetonitrile or methanol containing ISTD to plasma samples without any of the test or control compounds. Also, an additional control sample was made to simply monitor compound degradation in PBS buffer.
Below is a summary of samples prepared for a given test compound in a typical plasma stability assay: • Test compound (TC): 994 μL human plasma+6.0 μL TC (Vial A) • 994 μL human plasma+6.0 μL TC (Vial B) • Control: 596 μL human plasma+3.6 μL (procaine+procainamide) • Blank matrix: 500 μL PBS buffer+100 μL human plasma • Additional control: 142 μL PBS buffer+0.9 μL TC • Quenching mixture: 150 μL acetonitrile or methanol with ISTD (2 μM) • Final volume: 250 μL (100 μL from the incubation mixture+150 μL quenching mixture; final ISTD conc.: 1.2 μM)
LC-MS/MS analysis was performed using Agilent 1260 Infinity II HPLC, coupled with an Agilent G6460 triple quadrupole mass spectrometer (Agilent Technologies, USA). The data were acquired and processed using the Agilent 6460 Quantitative Analysis data processing software.
Reverse-phase HPLC separation for each compound was achieved on an Agilent InfinityLab Poroshell 120 C18 column (2.1×50 mm, 2.7 μm) with a mobile phase composed of methanol/water with 0.1% formic acid or acetonitrile/water with 0.1% formic acid at a flow rate of 0.5 mL/min. Each method was developed in the presence of the ISTD. The column temperature was maintained at 40° C. The detection was operated using the Agilent Jet-Stream electrospray positive ionization under the multiple reaction monitoring (MRM) mode. The mass spec conditions were as follows: dwell time 100 ms; gas flow 10 L/min; nebulizer pressure 45 psi; delta EMV 200 V.
Plots of time (x-axis) vs. the natural logarithm of percent parent remaining (y-axis) were subsequently constructed to determine the slope. Finally, the plasma stability was evaluated using the following equation: […]

CNCCN(C)C(=O)O/N=C(\C)[C@H]1CC[C@H]2[C@@H]3CCC4C[C@@H](O)CC[C@]4(C)[C@H]3CC[C@]12C (stereo partly drawn) [12a, (E)-1-((3S,8R,9S,10S,13S,14S,17S)-3-hydroxy-10,13-dimethylhexadecahydro-1H-cyclopenta[a]phenanthren-17-yl)ethan-1-one O-(methyl (2-(methylamino)ethyl)carbamoyl) oxime trifluoroacetate]
half-life at 3 μM: 1.45 h

CNCCN(C)C(=O)O/N=C(\C)[C@H]1CC[C@H]2[C@@H]3CC=C4C[C@@H](O)CC[C@]4(C)[C@H]3CC[C@]12C [12b, (E)-1-((3S,8S,9S,10R,13S,14S,17S)-3-hydroxy-10,13-dimethyl-2,3,4,7,8,9,10,11,12,13,14,15,16,17-tetradecahydro-1H-cyclopenta[a]phenanthren-17-yl)ethan-1-one O-(methyl (2-(methylamino)ethyl)carbamoyl)oxime trifluoroacetate]
half-life at 3 μM: 1.23 h

CNCCN(C)C(=O)O/N=C(\C)[C@H]1CC[C@H]2[C@@H]3CCC4C[C@H](O)CC[C@]4(C)[C@H]3CC[C@]12C (stereo partly drawn) [12c, (E)-1-((3R,8R,9S,10S,13S,14S,17S)-3-hydroxy-10,13-dimethylhexadecahydro-1H-cyclopenta[a]phenanthren-17-yl)ethan-1-one O-(methyl (2-(methylamino)ethyl)carbamoyl)oxime trifluoroacetate]
half-life at 3 μM: 1.39 h

C/C(=N\OC(=O)N(C)C[C@@H]1CCCN1)[C@H]1CC[C@H]2[C@@H]3CCC4C[C@@H](O)CC[C@]4(C)[C@H]3CC[C@]12C (stereo partly drawn) [13a, (E)-1-((3S,8R,9S,10S,13S,14S,17S)-3-hydroxy-10,13-dimethylhexadecahydro-1H-cyclopenta[a]phenanthren-17-yl)ethan-1-one O-(methyl(((S)-pyrrolidin-2-yl)methyl)carbamoyl)oxime trifluoroacetate]
half-life at 3 μM: < 0.1 h

C/C(=N\OC(=O)N(C)C[C@@H]1CCCN1)[C@H]1CC[C@H]2[C@@H]3CC=C4C[C@@H](O)CC[C@]4(C)[C@H]3CC[C@]12C [13b, (E)-1-((3S,8S,9S,10R,13S,14S,17S)-3-hydroxy-10,13-dimethyl-2,3,4,7,8,9,10,11,12,13,14,15,16,17-tetradecahydro-1H-cyclopenta[a]phenanthren-17-yl)ethan-1-one O-(methyl(((S)-pyrrolidin-2-yl)methyl)carbamoyl)oxime trifluoroacetate]
half-life at 3 μM: < 0.1 h

C/C(=N\OC(=O)N(C)C[C@@H]1CCCN1)[C@H]1CC[C@H]2[C@@H]3CCC4C[C@H](O)CC[C@]4(C)[C@H]3CC[C@]12C (stereo partly drawn) [13c, (E)-1-((3R,8R,9S,10S,13S,14S,17S)-3-hydroxy-10,13-dimethylhexadecahydro-1H-cyclopenta[a]phenanthren-17-yl)ethan-1-one O-(methyl(((S)-pyrrolidin-2-yl)methyl)carbamoyl)oxime trifluoroacetate]
half-life at 3 μM: < 0.1 h
